Source: patent publication US20230255927A1 (ELANCO TIERGESUNDHEIT AG, priority 2022, published 2023)
Marks after values point to notes of the source that are not given here.

System: lactating dairy cattle
Assay: Combined analysis of Wisconsin and New York Studies
Format: in vivo
Design: DMI / NEL: unit not given here
Conditions: for Milk protein percentage: all treatments
Procedure: The instant example provides the combined analysis of data from the two studies (Wisconsin Study and New York Study). The two studies were combined statistically to explore effects on milk production efficiency and other variables associated with efficiency. By effectively doubling pen numbers an increase in power of the analysis was provided. Analysis of these combined datasets was performed in various ways, with the inclusion of either weekly milk yield averages or sample day milk yields to calculate milk component yields, component corrected yields, and feed efficiency. Further, the combined dataset was analyzed using data collected from all experimental weeks as well as the exclusion of data from the first three weeks of experimental treatment feeding. This was done to exclude any shifts in response variables while the rumen environment was adapting to the treatment provided. Materials & Methods: All data from both experimental locations were combined and statistically analyzed as a longitudinal experiment design through SAS version 9.4 (SAS Institute Inc., Cary, N.C.). Experimental response variables, excluding body condition score (BCS), were analyzed using PROC MIXED and […] statements to compare treatment means using the following model: γijklm=μ+[…] Where γijklm=an individual observation of the response variable analyzed, Ti=the i^th dietary treatment, Wj=the j^th experimental week, TWij=the interaction of the i^th treatment with the j^th experimental week, Lk=the k^th experimental location, Pl(i*k)=the 1th pen within the i^th treatment and k^th experimental location, WPjl(i*k)=the interaction of the j^th experimental week with the 1th pen within the i^th treatment and k^th experimental location, Cm(l*i*k)=the m^th cow within the 1th pen, the i^th treatment and k^th experimental location, BXmlik=the covariate observation obtained after three weeks of feeding a common diet to all treatment groups, and ∈ijklmn=the random error of the m^th cow within the 1th pen, the i^th treatment and the k^th location. […] Data were analyzed with pen as the experimental unit and cow as the observational unit. Dietary treatment and experimental week were considered fixed effects, whereas location, pen and cow were considered random effects. An auto-regressive covariance structure [AR(1)] was used to analyze repeated measurements (week of experimental period) with cow nested in pen within treatment as the subject. For pen level observations (DMI, production efficiency and NEL measurements), the main effect of cattle was dropped from the statistical model above. Further, pen was used as the subject of the auto-regressive repeated analysis. Degrees of freedom were adjusted using the Kenward-Roger option and multiple treatment […] comparisons were adjusted by the Tukey method. Non-parametric analysis of BCS measurements, via PROC NPAR1WAY, was performed to evaluate differences in dietary treatments at both the initiation of the experiment and during the final week of the experiments. Statistical significance was reported as P≤0.05 and tendencies as 0.05<P≤0.10. […] This analysis, deemed the 'post-acclimation' analysis, removed the first three experimental weeks of data from the experimental dataset, leaving only the fourth to ninth weeks for statistical interpretation. The statistical model was identical to the previously described approach and all data, except for body weight and NEL (due to missing data), were reanalyzed for interpretation.

[1] = 11 g/ton, experimental weeks 4 through 9
[2] = 11 g/ton, sample day, entire experiment
[3] = 11 g/ton, sample day, weeks 4 through 9
[4] = 11 g/ton, weekly averaged, entire experiment
[5] = 11 g/ton, weekly averaged, weeks 4 through 9
[6] = 14.5 g/ton, experimental weeks 4 through 9
[7] = 14.5 g/ton, sample day, entire experiment
[8] = 14.5 g/ton, sample day, weeks 4 through 9
[9] = 14.5 g/ton, weekly averaged, entire experiment
[10] = 14.5 g/ton, weekly averaged, weeks 4 through 9
[11] = 18 g/ton, experimental weeks 4 through 9
[12] = 18 g/ton, sample day, entire experiment
[13] = 18 g/ton, sample day, weeks 4 through 9
[14] = 18 g/ton, weekly averaged, entire experiment
[15] = 18 g/ton, weekly averaged, weeks 4 through 9

CC[C@@]1([C@@H]2O[C@@H]([C@H]3O[C@@](O)(CO)[C@H](C)C[C@@H]3C)C[C@@H]2C)CC[C@H]([C@]2(C)CC[C@]3(C[C@H](O)[C@@H](C)[C@@H]([C@@H](C)[C@@H](OC)[C@H](C)C(=O)O)O3)O2)O1 [monensin]
DMI (11 g/ton, entire experiment): 59.7
MUN (11 g/ton, entire experiment): 11.0^b mg/dL
Milk Fat, % (11 g/ton, entire experiment): 4.45%
Milk Fatty Acid: De novo (11 g/ton, entire experiment): 1.08^b g/100 g
Milk Fatty Acid: Mixed (11 g/ton, entire experiment): 1.79 g/100 g
Milk Fatty Acid: Performed (11 g/ton, entire experiment): 1.32 g/100 g
Milk Fatty Acid: Total FA (11 g/ton, entire experiment): 4.20 g/100 g
Milk Lactose, % (11 g/ton, entire experiment): 4.66%
Milk Protein, % (11 g/ton, entire experiment): 3.29%
DMI [1]: 59.5
MUN [1]: 11.1^by mg/dL
Milk Fat, % [1]: 4.46%
Milk Fatty Acid: Mixed [1]: 1.79^ab g/100 g
Milk Fatty Acid: Performed [1]: 1.33 g/100 g
Milk Fatty Acid: Total FA [1]: 4.21 g/100 g
Milk Lactose, % [1]: 4.65%
Milk Protein, % [1]: 3.33%
NEL (11 g/ton, sample day milk yield, entire experiment): 1.53
Day of Sample Milk Yield [2]: 92.0 lb
ECM [2]: 100.8^a lb
ECM:Feed [2]: 1.72^a
FCM [2]: 95.3^a lb
FCM:Feed [2]: 1.63^a
Fat yield [2]: 4.05^xy lb
Lactose yield [2]: 4.30 lb
Milk:Feed [2]: 1.56^xy
Protein yield [2]: 3.02 lb
SCM [2]: 95.2^xy lb
SCM:Feed [2]: 1.59^ab
Day of Sample Milk Yield [3]: 90.6 lb
ECM [3]: 102.0^ab lb
ECM:Feed [3]: 1.71^abx
FCM [3]: 96.2^ab lb
FCM:Feed [3]: 1.61^b
Fat yield [3]: 3.98^ab lb
Lactose yield [3]: 4.23 lb
Milk:Feed [3]: 1.54^xy
Protein yield [3]: 3.01 lb
SCM [3]: 93.9^ab lb
SCM:Feed [3]: 1.57^abx
NEL (11 g/ton, weekly averaged milk yield, entire experiment): 1.53
ECM [4]: 102.8 lb
ECM:Feed [4]: 1.73^aby
FCM [4]: 97.2 lb
FCM:Feed [4]: 1.64^b
Fat yield [4]: 4.03 lb
Lactose yield [4]: 4.27 lb
Milk Yield [4]: 91.5 lb
Milk:Feed [4]: 1.57
Protein yield [4]: 3.00 lb
SCM [4]: 94.7^xy lb
SCM:Feed [4]: 1.59^by
ECM [5]: 101.6^y lb
ECM:Feed [5]: 1.72^b
FCM [5]: 95.9^y lb
FCM:Feed [5]: 1.62^b
Fat yield [5]: 3.97^ab lb
Lactose yield [5]: 4.19 lb
Milk Yield [5]: 90.4 lb
Milk:Feed [5]: 1.55
Protein yield [5]: 2.99 lb
SCM [5]: 93.5^aby lb
SCM:Feed [5]: 1.58^b
DMI (14.5 g/ton, entire experiment): 59.2
Milk Fat, % (14.5 g/ton, entire experiment): 4.47%
Milk Fatty Acid: De novo (14.5 g/ton, entire experiment): 1.08^b g/100 g
Milk Fatty Acid: Mixed (14.5 g/ton, entire experiment): 1.80 g/100 g
Milk Fatty Acid: Performed (14.5 g/ton, entire experiment): 1.31 g/100 g
Milk Fatty Acid: Total FA (14.5 g/ton, entire experiment): 4.20 g/100 g
Milk Lactose, % (14.5 g/ton, entire experiment): 4.67%
Milk Protein, % (14.5 g/ton, entire experiment): 3.30%
DMI [6]: 59.5
MUN [6]: 11.0^b mg/dL
Milk Fat, % [6]: 4.50%
Milk Fatty Acid: Mixed [6]: 1.82^b g/100 g
Milk Fatty Acid: Performed [6]: 1.32 g/100 g
Milk Fatty Acid: Total FA [6]: 4.23 g/100 g
Milk Lactose, % [6]: 4.66%
Milk Protein, % [6]: 3.33%
NEL (14.5 g/ton, sample day milk yield, entire experiment): 1.55
Day of Sample Milk Yield [7]: 92.6 lb
ECM [7]: 104.1^b lb
ECM:Feed [7]: 1.77^b
FCM [7]: 98.6^b lb
FCM:Feed [7]: 1.68^b
Fat yield [7]: 4.09^y lb
Lactose yield [7]: 4.34 lb
Milk:Feed [7]: 1.61^y
Protein yield [7]: 3.03 lb
SCM [7]: 96.0^y lb
SCM:Feed [7]: 1.64^b
Day of Sample Milk Yield [8]: 91.3 lb
ECM [8]: 103.3^b lb
ECM:Feed [8]: 1.75^by
FCM [8]: 97.6^b lb
FCM:Feed [8]: 1.66^c
Fat yield [8]: 4.06^b lb
Lactose yield [8]: 4.27 lb
Milk:Feed [8]: 1.57^y
Protein yield [8]: 3.02 lb
SCM [8]: 95.2^b lb
SCM:Feed [8]: 1.62^by
NEL (14.5 g/ton, weekly averaged milk yield, entire experiment): 1.54
ECM [9]: 102.4 lb
ECM:Feed [9]: 1.74^b
FCM [9]: 96.9 lb
FCM:Feed [9]: 1.65^b
Fat yield [9]: 4.03 lb
Lactose yield [9]: 4.26 lb
Milk Yield [9]: 91.0 lb
Milk:Feed [9]: 1.57
Protein yield [9]: 2.98 lb
SCM [9]: 94.5^y lb
SCM:Feed [9]: 1.61^b
ECM [10]: 101.7^y lb
ECM:Feed [10]: 1.72^b
FCM [10]: 96.1^y lb
FCM:Feed [10]: 1.63^b
Fat yield [10]: 4.00^b lb
Lactose yield [10]: 4.19 lb
Milk Yield [10]: 89.8 lb
Milk:Feed [10]: 1.54
Protein yield [10]: 2.97 lb
SCM [10]: 93.7^b lb
SCM:Feed [10]: 1.58^b
Sample day milk yield difference from the control treatment (18 g/ton treatment, post-acclimation data): 1.5 pounds
DMI (18 g/ton, entire experiment): 59.7
MUN (18 g/ton, entire experiment): 10.4^ab mg/dL
Milk Fat, % (18 g/ton, entire experiment): 4.42%
Milk Fatty Acid: De novo (18 g/ton, entire experiment): 1.06^ab g/100 g
Milk Fatty Acid: Mixed (18 g/ton, entire experiment): 1.77 g/100 g
Milk Fatty Acid: Performed (18 g/ton, entire experiment): 1.30 g/100 g
Milk Fatty Acid: Total FA (18 g/ton, entire experiment): 4.13 g/100 g
Milk Lactose, % (18 g/ton, entire experiment): 4.66%
Milk Protein, % (18 g/ton, entire experiment): 3.29%
DMI [11]: 60.2
MUN [11]: 10.4^abx mg/dL
Milk Fat, % [11]: 4.43%
Milk Fatty Acid: De novo [11]: 1.07^ab g/100 g
Milk Fatty Acid: Mixed [11]: 1.78^ab g/100 g
Milk Fatty Acid: Performed [11]: 1.32 g/100 g
Milk Fatty Acid: Total FA [11]: 4.16 g/100 g
Milk Lactose, % [11]: 4.66%
Milk Protein, % [11]: 3.32%
NEL (18 g/ton, sample day milk yield, entire experiment): 2.39
Day of Sample Milk Yield [12]: 91.6 lb
ECM [12]: 102.2^ab lb
ECM:Feed [12]: 1.71^a
FCM [12]: 96.7^ab lb
FCM:Feed [12]: 1.61^a
Fat yield [12]: 3.99^xy lb
Lactose yield [12]: 4.27 lb
Milk:Feed [12]: 1.55^x
Protein yield [12]: 2.98 lb
SCM [12]: 94.1^xy lb
SCM:Feed [12]: .157^a
Day of Sample Milk Yield [13]: 90.6 lb
ECM [13]: 101.4^ab lb
ECM:Feed [13]: 1.67^a
FCM [13]: 95.8^ab lb
FCM:Feed [13]: 1.58^ab
Fat yield [13]: 3.96^ab lb
Lactose yield [13]: 4.22 lb
Milk:Feed [13]: 1.51^x
Protein yield [13]: 2.97 lb
SCM [13]: 93.4^ab lb
SCM:Feed [13]: 1.54^a
NEL (18 g/ton, weekly averaged milk yield, entire experiment): 2.38
ECM [14]: 100.9 lb
ECM:Feed [14]: 1.69^ax
FCM [14]: 95.5 lb
FCM:Feed [14]: 1.60^a
Fat yield [14]: 3.95 lb
Lactose yield [14]: 4.22 lb
Milk Yield [14]: 90.4 lb
Milk:Feed [14]: 1.53
Protein yield [14]: 2.95 lb
SCM [14]: 93.1^x lb
SCM:Feed [14]: 1.56^a
ECM [15]: 100.2^xy lb
ECM:Feed [15]: 1.66^a
FCM [15]: 94.6^xy lb
FCM:Feed [15]: 1.56^a
Fat yield [15]: 3.91^ab lb
Lactose yield [15]: 4.16 lb
Milk Yield [15]: 89.4 lb
Milk:Feed [15]: 1.50
Protein yield [15]: 2.94 lb
SCM [15]: 92.3^ab lb
SCM:Feed [15]: 1.53^a
Milk protein percentage (entire study): 3.29%
Milk protein percentage (post-acclimation period): 3.32%
